One data set in a line: Cytotoxicity against of human polymorphonuclear leukocytes assessed as cell viability by trypan blue dye exclusion assay. More on the design: concentration or dose not given beside the values. The settings on record: read-out: Activity.
Regarding `CC(C)Cc1ccc([C@@H](C)C(=O)O)cc1` [(R)-IBUPROPHEN], the viability was greater than 95%.

Regarding `O=C(O)Cc1ccccc1Oc1ccccc1F`, the viability was greater than 95%.

For the compound `Cc1ccc(Cl)c(Nc2ccccc2CC(=O)O)c1Cl`, the viability was greater than 95%.

For the compound `O=C(O)Cc1ccccc1Nc1c(Cl)cccc1Cl` [DICLOFENAC], the viability was greater than 95%.

Consider `CS(=O)(=O)NC(=O)Cc1ccccc1Oc1ccccc1F`, for which the viability is greater than 95%.

With `O=C(O)Cc1ccccc1Oc1ccccc1Cl`, the viability is greater than 95%.

For `O=C(O)Cc1ccccc1Nc1ccccc1Cl`, the viability is greater than 95%.

For the compound `CC(C(=O)NCCO)c1ccccc1Nc1c(Cl)cccc1Cl` (configuration not stated), the viability is greater than 95%.

Regarding `CC(C(=O)NC(C)(C)C)c1ccccc1Nc1c(Cl)cccc1Cl` (configuration not stated), the viability was greater than 95%.

Regarding `Cc1ccccc1Nc1ccccc1CC(=O)O`, the viability is greater than 95%.

With `O=C(O)Cc1ccccc1Cc1c(Cl)cccc1Cl`, the viability was greater than 95%.

With `O=C(O)Cc1ccccc1Nc1cc(Cl)ccc1Cl`, the viability is greater than 95%.

For the compound `O=C(O)Cc1cccc(C(=O)c2ccccc2)c1`, the viability was greater than 95%.

Turning to `Cc1ccc(C(=O)c2ccc(CC(=O)O)n2C)cc1` [TOLMETIN], the viability was greater than 95%.

Regarding `O=C(O)Cc1ccccc1Oc1ccccc1`, the viability is greater than 95%.

Turning to `Cc1cccc(C)c1NC(=O)C(C)c1ccccc1Nc1c(Cl)cccc1Cl` (configuration not stated), the viability was greater than 95%.

For the compound `O=C(O)Cc1ccccc1Nc1c(F)cccc1F`, the viability was greater than 95%.

For `CC(C(=O)NS(C)(=O)=O)c1ccccc1Nc1c(Cl)cccc1Cl` (configuration not stated), the viability was greater than 95%.

For `CC(C)Cc1ccc(CC(=O)O)cc1` [IBUFENAC], the viability is greater than 95%.

As for `CC(C(=O)NCCCN(C)C)c1ccccc1Nc1c(Cl)cccc1Cl` (configuration not stated), the viability was greater than 95%.

As for `COc1ccc2c(c1)c(CC(=O)O)c(C)n2C(=O)c1ccc(Cl)cc1` [INDOMETHACIN], the viability was greater than 95%.

As to `O=C(O)Cc1ccccc1Nc1ccccc1`, the viability was greater than 95%.

In the case of `O=C(O)Cc1ccccc1Nc1ccccc1F`, the viability is greater than 95%.

Consider `CC(C(=O)O)c1ccccc1Nc1c(Cl)cccc1Cl` (configuration not stated), for which the viability is greater than 95%.

As to `CC(C(N)=O)c1ccccc1Nc1c(Cl)cccc1Cl` (configuration not stated), the viability is greater than 95%.

`CC(C(=O)NCCC[N+](C)(C)C)c1ccccc1Nc1c(Cl)cccc1Cl` (configuration not stated): the viability is greater than 95%.

The next data set is described as follows: Cytotoxicity against mouse L1.2 cells assessed as cell viability by trypan blue dye exclusion assay. The class given is cell-based. Details: concentration or dose not given beside the values. The following applies: read-out: Activity.
As to `CC(C)Cc1ccc([C@@H](C)C(=O)O)cc1` [(R)-IBUPROPHEN], the viability was greater than 95%.

For `O=C(O)Cc1ccccc1Oc1ccccc1F`, the viability was greater than 95%.

Consider `Cc1ccc(Cl)c(Nc2ccccc2CC(=O)O)c1Cl`, for which the viability is greater than 95%.

Take `O=C(O)Cc1ccccc1Nc1c(Cl)cccc1Cl` [DICLOFENAC]: the viability is greater than 95%.

With `CS(=O)(=O)NC(=O)Cc1ccccc1Oc1ccccc1F`, the viability was greater than 95%.

With `O=C(O)Cc1ccccc1Oc1ccccc1Cl`, the viability is greater than 95%.

In the case of `O=C(O)Cc1ccccc1Nc1ccccc1Cl`, the viability was greater than 95%.

As to `CC(C(=O)NCCO)c1ccccc1Nc1c(Cl)cccc1Cl` (configuration not stated), the viability was greater than 95%.

For `CC(C(=O)NC(C)(C)C)c1ccccc1Nc1c(Cl)cccc1Cl` (configuration not stated), the viability is greater than 95%.

Consider `Cc1ccccc1Nc1ccccc1CC(=O)O`, for which the viability was greater than 95%.

On to `O=C(O)Cc1ccccc1Cc1c(Cl)cccc1Cl`, for which the viability was greater than 95%.

As to `O=C(O)Cc1ccccc1Nc1cc(Cl)ccc1Cl`, the viability was greater than 95%.

On to `O=C(O)Cc1cccc(C(=O)c2ccccc2)c1`, for which the viability was greater than 95%.

In the case of `Cc1ccc(C(=O)c2ccc(CC(=O)O)n2C)cc1` [TOLMETIN], the viability is greater than 95%.

For the compound `O=C(O)Cc1ccccc1Oc1ccccc1`, the viability was greater than 95%.

As for `Cc1cccc(C)c1NC(=O)C(C)c1ccccc1Nc1c(Cl)cccc1Cl` (configuration not stated), the viability was greater than 95%.

In the case of `O=C(O)Cc1ccccc1Nc1c(F)cccc1F`, the viability is greater than 95%.

`CC(C(=O)NS(C)(=O)=O)c1ccccc1Nc1c(Cl)cccc1Cl` (configuration not stated): the viability was greater than 95%.

Consider `CC(C)Cc1ccc(CC(=O)O)cc1` [IBUFENAC], for which the viability was greater than 95%.

Regarding `CC(C(=O)NCCCN(C)C)c1ccccc1Nc1c(Cl)cccc1Cl` (configuration not stated), the viability was greater than 95%.

`COc1ccc2c(c1)c(CC(=O)O)c(C)n2C(=O)c1ccc(Cl)cc1` [INDOMETHACIN]: the viability was greater than 95%.

Take `O=C(O)Cc1ccccc1Nc1ccccc1`: the viability was greater than 95%.

Take `O=C(O)Cc1ccccc1Nc1ccccc1F`: the viability was greater than 95%.

For the compound `CC(C(=O)O)c1ccccc1Nc1c(Cl)cccc1Cl` (configuration not stated), the viability is greater than 95%.

Turning to `CC(C(N)=O)c1ccccc1Nc1c(Cl)cccc1Cl` (configuration not stated), the viability is greater than 95%.

Take `CC(C(=O)NCCC[N+](C)(C)C)c1ccccc1Nc1c(Cl)cccc1Cl` (configuration not stated): the viability was greater than 95%.

The values are drawn from ChEMBL document CHEMBL1152404, “Structure-Activity Relationship of novel phenylacetic CXCR1 inhibitors” (Bioorg Med Chem Lett, 2009).
